Where two headings read alike, the source gives them in different places.
What was measured:
Type in all cases: biochemical
PI3Kγ = molecular target: T1, PI3Kγ (Homo sapiens, UniProt P48736); experiment: PI3K kinases inhibition in vitro (ADP-Glo), PI3Kγ
T1 construct: purchased Merck Millipore
Protocol: (§1) Tested compounds were dissolved in 100% DMSO, and thus obtained solutions were serially diluted in 1× reaction buffer. Recombinant kinase was diluted in a reaction mixture comprising 5× reaction buffer, substrate (1 mM sodium diacetate 4,5-bisphosphate phosphatydylinositol (PIP2) solution in 40 mM Tris buffer), and water. To the wells in a 96-wells plate, 5 μl of compounds solutions and 15 μl of the kinase solution in the reaction mixture were added. To initiate interaction of tested chemical compounds with the enzyme, the plate was incubated for 10 minutes at suitable temperature in a plate thermostat with orbital shaking at 600 rpm. Negative control wells contained all above reagents except tested compound and kinase, and positive control wells contained all above reagents except tested compounds. Enzymatic reaction was initiated by adding 5 μl of 150 μM ATP solution, subsequently the plate was incubated for 1 hour at 25° C. or 30° C. (depending on PI3K isoform tested) in plate thermostat with orbital shaking of the plate contents at 600 rpm. Reaction conditions are presented below in Table 12.
(§2) Detection of ADP formed in the enzymatic reaction was then performed using ADP-Glo Kinase Assay (Promega). To the wells of a 96-well plate 25 μl of ADP-Glo Reagent were added, and the plate was incubated for 40 minutes at 25° C. in a plate thermostat with orbital shaking at 600 rpm. Then to the wells of 96-well plate 50 μl of Kinase Detection Reagent were added and the plate was incubated for 40 minutes at 25° C. in a plate thermostat with orbital shaking at 600 rpm. After incubation time, luminescence intensity in a well was measured by Victor Light luminometer (Perkin Elmer, Inc.).
(§3) IC50 values were determined on the basis of luminescence intensity measurements in wells containing tested compounds at different concentrations and in control wells. These values were calculated with Graph Pad 5.03 software by fitting the curve using non-linear regression. Each compound was tested at least in quadruplicates (4 wells) on two 96-well plates using at least 4 wells of each of the controls.

PI3Kα = molecular target: T2, PI3Kα (Homo sapiens, UniProt P42336); experiment: PI3K kinases inhibition in vitro (ADP-Glo), PI3Kα
T2 construct: purchased Carna Biosciences
T2 sequence (P42336 whole entry): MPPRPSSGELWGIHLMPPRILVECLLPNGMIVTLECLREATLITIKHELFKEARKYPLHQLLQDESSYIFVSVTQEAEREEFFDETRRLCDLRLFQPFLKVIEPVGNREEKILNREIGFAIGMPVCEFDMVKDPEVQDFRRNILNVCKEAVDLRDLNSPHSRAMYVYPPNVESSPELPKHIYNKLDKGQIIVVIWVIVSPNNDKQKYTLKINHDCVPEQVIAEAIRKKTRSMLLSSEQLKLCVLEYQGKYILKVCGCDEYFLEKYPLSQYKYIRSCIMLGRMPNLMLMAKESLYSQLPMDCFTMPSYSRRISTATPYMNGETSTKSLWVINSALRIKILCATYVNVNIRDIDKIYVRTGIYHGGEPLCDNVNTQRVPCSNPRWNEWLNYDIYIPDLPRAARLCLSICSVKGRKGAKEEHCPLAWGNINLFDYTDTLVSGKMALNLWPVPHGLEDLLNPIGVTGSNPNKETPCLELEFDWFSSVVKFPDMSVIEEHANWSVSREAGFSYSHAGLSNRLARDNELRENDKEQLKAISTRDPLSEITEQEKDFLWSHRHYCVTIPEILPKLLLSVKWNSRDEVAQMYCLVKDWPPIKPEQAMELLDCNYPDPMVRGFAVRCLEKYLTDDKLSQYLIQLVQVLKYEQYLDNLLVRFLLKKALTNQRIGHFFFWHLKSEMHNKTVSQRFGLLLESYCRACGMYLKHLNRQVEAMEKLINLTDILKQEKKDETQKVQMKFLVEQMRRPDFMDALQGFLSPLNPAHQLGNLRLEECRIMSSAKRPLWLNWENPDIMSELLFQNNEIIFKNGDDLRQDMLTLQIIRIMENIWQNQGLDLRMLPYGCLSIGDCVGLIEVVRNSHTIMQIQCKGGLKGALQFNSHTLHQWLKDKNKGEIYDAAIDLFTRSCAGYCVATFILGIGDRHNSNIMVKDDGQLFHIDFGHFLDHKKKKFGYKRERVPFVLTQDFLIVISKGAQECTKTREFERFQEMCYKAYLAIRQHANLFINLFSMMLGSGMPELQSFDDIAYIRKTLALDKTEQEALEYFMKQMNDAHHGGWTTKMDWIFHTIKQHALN
T2 sequence (P27986 whole entry partner): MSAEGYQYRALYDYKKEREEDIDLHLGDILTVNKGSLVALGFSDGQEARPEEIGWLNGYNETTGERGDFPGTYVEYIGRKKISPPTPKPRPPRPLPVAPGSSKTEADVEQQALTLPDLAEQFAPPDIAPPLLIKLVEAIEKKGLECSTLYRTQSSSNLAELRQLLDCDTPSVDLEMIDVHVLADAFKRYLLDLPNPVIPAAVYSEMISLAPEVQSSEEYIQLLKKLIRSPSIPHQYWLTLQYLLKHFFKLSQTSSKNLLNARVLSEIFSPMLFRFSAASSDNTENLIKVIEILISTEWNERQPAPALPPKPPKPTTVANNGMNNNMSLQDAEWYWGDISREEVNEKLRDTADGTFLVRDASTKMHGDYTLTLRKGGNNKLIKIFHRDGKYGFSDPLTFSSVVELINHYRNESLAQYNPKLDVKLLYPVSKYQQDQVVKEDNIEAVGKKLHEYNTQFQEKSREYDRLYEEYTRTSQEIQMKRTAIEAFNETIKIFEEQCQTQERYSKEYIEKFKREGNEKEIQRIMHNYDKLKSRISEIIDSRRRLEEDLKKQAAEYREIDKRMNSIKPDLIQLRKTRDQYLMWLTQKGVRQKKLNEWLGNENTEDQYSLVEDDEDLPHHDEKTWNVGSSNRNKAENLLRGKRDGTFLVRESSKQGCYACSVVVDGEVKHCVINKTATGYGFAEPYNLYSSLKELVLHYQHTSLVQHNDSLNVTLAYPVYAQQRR
Protocol: as §1, §2, §3

PI3Kδ = molecular target: T3, PI3Kδ (Homo sapiens, UniProt O00329); experiment: PI3K kinases inhibition in vitro (ADP-Glo), PI3Kδ
T3 construct: purchased Merck Millipore
T3 sequence (O00329 whole entry): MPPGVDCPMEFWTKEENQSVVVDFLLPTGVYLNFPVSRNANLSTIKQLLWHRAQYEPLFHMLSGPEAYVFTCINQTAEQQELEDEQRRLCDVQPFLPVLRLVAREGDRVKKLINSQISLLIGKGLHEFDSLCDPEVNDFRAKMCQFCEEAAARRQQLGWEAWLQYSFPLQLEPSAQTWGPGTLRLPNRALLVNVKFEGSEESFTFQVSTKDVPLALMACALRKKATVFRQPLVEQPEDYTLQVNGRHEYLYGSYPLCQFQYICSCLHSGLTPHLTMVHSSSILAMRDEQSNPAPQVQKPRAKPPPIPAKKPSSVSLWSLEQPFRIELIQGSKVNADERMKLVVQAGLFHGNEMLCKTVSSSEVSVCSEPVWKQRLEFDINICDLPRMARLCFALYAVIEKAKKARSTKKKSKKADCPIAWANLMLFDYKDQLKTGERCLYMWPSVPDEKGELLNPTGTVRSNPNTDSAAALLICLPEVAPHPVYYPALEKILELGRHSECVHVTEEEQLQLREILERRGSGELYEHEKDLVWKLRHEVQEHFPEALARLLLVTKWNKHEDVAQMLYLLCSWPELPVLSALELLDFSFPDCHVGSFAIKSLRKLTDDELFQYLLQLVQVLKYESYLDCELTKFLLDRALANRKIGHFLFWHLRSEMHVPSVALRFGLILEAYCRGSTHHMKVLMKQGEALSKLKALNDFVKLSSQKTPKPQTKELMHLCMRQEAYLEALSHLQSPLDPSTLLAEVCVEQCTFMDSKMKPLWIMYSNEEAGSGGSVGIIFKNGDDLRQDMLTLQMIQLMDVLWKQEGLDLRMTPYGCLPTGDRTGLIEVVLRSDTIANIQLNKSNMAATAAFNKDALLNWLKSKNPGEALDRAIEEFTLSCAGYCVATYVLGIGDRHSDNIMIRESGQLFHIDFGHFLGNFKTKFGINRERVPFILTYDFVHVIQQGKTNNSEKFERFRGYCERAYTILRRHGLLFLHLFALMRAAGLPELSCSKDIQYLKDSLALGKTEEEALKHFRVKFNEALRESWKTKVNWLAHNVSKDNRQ
T3 sequence (P27986 whole entry, further chain): as the sequence (P27986 whole entry partner) above
Protocol: as §1, §2, §3

PI3Kβ = molecular target: T4, PI3Kβ (Homo sapiens, UniProt P42338); experiment: PI3K kinases inhibition in vitro (ADP-Glo), PI3Kβ
T4 construct: purchased Merck Millipore
T4 sequence (P42338 whole entry): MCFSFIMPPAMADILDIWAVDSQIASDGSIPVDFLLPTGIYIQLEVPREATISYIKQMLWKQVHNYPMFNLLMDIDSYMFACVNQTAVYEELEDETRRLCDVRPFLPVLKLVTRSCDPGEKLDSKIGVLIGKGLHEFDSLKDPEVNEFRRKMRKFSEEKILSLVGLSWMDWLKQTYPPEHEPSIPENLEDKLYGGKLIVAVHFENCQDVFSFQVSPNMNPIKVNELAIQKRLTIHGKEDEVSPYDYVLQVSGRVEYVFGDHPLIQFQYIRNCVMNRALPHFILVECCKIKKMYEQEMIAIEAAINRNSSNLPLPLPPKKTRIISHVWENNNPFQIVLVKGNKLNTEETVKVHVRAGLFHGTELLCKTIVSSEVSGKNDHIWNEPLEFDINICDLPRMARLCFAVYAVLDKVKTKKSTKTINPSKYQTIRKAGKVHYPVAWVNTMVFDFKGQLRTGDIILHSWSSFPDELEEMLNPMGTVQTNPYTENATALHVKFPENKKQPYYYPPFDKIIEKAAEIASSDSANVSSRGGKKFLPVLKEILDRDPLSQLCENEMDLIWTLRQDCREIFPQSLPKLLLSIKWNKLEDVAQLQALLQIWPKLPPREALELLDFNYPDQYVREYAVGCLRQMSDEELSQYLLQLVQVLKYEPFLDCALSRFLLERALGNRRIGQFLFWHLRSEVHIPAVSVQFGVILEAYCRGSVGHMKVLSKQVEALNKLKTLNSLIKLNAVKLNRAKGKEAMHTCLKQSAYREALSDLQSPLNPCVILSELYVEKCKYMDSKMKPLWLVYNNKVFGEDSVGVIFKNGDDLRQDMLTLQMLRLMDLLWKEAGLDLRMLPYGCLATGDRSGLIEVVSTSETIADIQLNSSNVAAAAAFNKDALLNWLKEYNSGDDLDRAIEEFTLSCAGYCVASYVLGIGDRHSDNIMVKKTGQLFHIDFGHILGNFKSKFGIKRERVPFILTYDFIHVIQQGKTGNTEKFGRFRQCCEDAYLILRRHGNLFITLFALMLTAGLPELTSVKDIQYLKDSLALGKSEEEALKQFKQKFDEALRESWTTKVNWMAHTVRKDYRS
T4 sequence (P27986 whole entry, further chain): as the sequence (P27986 whole entry partner) above
Protocol: as §1, §2, §3

[1] = averaged, recombinant kinase, 30° C., 1 h, PIP2 50 μM, read-out: PI3Kγ IC50
[2] = averaged, recombinant kinase, 25° C., 1 h, PIP2 30 μM, read-out: PI3Kδ IC50
[3] = averaged, recombinant kinase, 30° C., 1 h, PIP2 50 μM, read-out: PI3Kβ IC50

T1 sequence (P48736 whole entry): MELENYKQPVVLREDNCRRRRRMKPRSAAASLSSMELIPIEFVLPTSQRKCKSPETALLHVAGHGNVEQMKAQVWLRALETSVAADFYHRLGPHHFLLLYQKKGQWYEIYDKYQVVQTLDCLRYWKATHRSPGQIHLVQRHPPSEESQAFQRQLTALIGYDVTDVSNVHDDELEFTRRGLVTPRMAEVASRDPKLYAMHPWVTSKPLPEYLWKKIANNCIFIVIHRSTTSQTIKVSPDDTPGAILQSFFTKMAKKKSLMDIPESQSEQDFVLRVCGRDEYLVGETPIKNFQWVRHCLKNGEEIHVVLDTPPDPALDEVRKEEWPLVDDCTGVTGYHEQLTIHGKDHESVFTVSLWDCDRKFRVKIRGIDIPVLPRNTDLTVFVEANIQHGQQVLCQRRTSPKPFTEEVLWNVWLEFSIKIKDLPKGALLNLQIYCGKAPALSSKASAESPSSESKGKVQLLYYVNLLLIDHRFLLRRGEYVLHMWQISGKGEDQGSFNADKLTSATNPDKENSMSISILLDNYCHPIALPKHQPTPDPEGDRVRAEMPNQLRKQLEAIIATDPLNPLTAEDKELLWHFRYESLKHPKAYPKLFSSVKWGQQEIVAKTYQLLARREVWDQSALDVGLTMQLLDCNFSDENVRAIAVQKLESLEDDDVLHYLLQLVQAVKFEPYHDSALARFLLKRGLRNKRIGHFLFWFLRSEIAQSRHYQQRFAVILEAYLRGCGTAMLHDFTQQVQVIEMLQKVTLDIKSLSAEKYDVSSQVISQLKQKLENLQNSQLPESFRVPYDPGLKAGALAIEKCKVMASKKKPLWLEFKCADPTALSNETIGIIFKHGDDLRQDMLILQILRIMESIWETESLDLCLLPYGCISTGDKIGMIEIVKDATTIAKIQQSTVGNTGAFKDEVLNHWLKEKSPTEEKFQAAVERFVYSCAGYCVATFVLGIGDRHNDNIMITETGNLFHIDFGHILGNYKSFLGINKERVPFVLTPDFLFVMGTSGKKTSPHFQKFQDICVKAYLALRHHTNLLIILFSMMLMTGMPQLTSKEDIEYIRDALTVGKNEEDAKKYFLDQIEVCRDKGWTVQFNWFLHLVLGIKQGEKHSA

| SMILES | IC50 (PI3Kγ; [1]) [nM] | IC50 (PI3Kα) [nM] | IC50 (PI3Kδ; [2]) [nM] | IC50 (PI3Kβ; [3]) [nM] | IC50 (PI3Kγ) [nM] | IC50 (PI3Kδ) [nM] | IC50 (PI3Kβ) [nM] |
| --- | --- | --- | --- | --- | --- | --- | --- |
| O=C(C1CC1)N1CCN(Cc2cc3nc(-c4cccc5[nH]ccc45)cc(N4CCOCC4)n3n2)CC1 [Example 1, 2-((4-(cyclopropanecarbonyl)piperazin-1-yl)methyl)-5-(1H-indol-4-yl)-7-(morpholin-4-yl)pyrazolo[1,5-a]pyrimidine] | 100 to 1000 | > 1000 | < 100 | > 1000 |  |  |  |
| CN(C)C1CCN(Cc2cc3nc(-c4cccc5[nH]ccc45)cc(N4CCOCC4)n3n2)CC1 [Example 5, 2-((4-(dimethylamino)piperidin-1-yl)methyl)-5-(1H-indol-4-yl)-7-(morpholin-4-yl)pyrazolo[1,5-a]-pyrimidine] |  | > 1000 |  |  | > 1000 | < 100 | > 1000 |
| CC(C)(O)C1CCN(Cc2cc3nc(-c4c(F)ccc5[nH]ccc45)cc(N4CCOCC4)n3n2)CC1 [Example 7, 2-((4-(2-hydroxypropan-2-yl)-piperidin-1-yl)methyl)-5-(5-fluoro-1H-indol-4-yl)-7-(morpholin-4-yl)-pyrazolo[1,5-a]pyrimidine] | > 1000 | > 1000 | < 100 | > 1000 |  |  |  |
| CC(C)(C(N)=O)N1CCN(Cc2cc3nc(-c4cccc5[nH]ccc45)cc(N4CCOCC4)n3n2)CC1 [Example 9, 2-(4-((5-(1H-indol-4-yl)-7-(morpholin-4-yl)pyrazolo[1,5-a]-pyrimidin-2-yl)methyl)piperazin-1-yl)-2-methyl-propionamide] |  | > 1000 |  |  | > 1000 | < 100 | > 1000 |
| CC(C)(C(N)=O)N1CCN(Cc2cc3nc(-c4c(F)ccc5[nH]ccc45)cc(N4CCOCC4)n3n2)CC1 [Example 10, 2-(4-((5-(5-fluoro-1H-indol-4-yl)-7-(morpholin-4-yl)pyrazolo[1,5-a]-pyrimidin-2-yl)methyl)piperazin-1-yl)-2-methyl-propionamide] | > 1000 | > 1000 | < 100 | > 1000 |  |  |  |
| CN(C)C1CCN(Cc2cc3nc(-c4c(F)ccc5[nH]ccc45)cc(N4CCOCC4)n3n2)CC1 [Example 13, 2-((4-(dimethylamino)piperidin-1-yl)methyl)-5-(5-fluoro-1H-indol-4-yl)-7-(morpholin-4-yl)pyrazolo[1,5-a]pyrimidine] | > 1000 | > 1000 | < 100 | > 1000 |  |  |  |
| CC(C)(C)N1CCN(Cc2cc3nc(-c4ccc(N)nc4)cc(N4CCOCC4)n3n2)CC1 [Example 16, 5-(2-aminopyridin-5-yl)-2-((4-tert-butylpiperazin-1-yl)methyl)-7-(morpholin-4-yl)pyrazolo[1,5-a]-pyrimidine] | > 1000 | > 1000 | < 100 | > 1000 |  |  |  |
| CC(C)(C)N1CCN(Cc2cc3nc(-c4cnc(N)nc4)cc(N4CCOCC4)n3n2)CC1 [Example 17, 5-(2-aminopyrimidin-5-yl)-2-((4-tert-butylpiperazin-1-yl)methyl)-7-(morpholin-4-yl)pyrazolo[1,5-a]-pyrimidine] | > 1000 | > 1000 | < 100 | > 1000 |  |  |  |
| CC(C)(O)C1CCN(Cc2cc3nc(-c4ccc(N)nc4)cc(N4CCOCC4)n3n2)CC1 [Example 19, 5-(2-aminopyridin-5-yl)-2-((4-(2-hydroxypropan-2-yl)piperidin-1-yl)methyl)-7-(morpholin-4-yl)-pyrazolo[1,5-a]pyrimidine] | > 1000 | > 1000 | < 100 | > 1000 |  |  |  |
| c1cc(-c2cc(N3CCOCC3)n3nc(CN4CCN(C5CC5)CC4)cc3n2)c2cc[nH]c2c1 [Example 20, 2-((4-cyclopropyl-piperazin-1-yl)-methyl)-5-(1H-indol-4-yl)-7-(morpholin-4-yl)pyrazolo[1,5-a]-pyrimidine] |  | > 1000 |  |  |  | < 100 | > 1000 |
| CCN1CCN(Cc2cc3nc(-c4cccc5[nH]ccc45)cc(N4CCOCC4)n3n2)CC1 [Example 22, 2-((4-ethylpiperazin-1-yl)methyl)-5-(1H-indol-4-yl)-7-(morpholin-4-yl)pyrazolo[1,5-a]pyrimidine] |  | > 1000 |  |  | > 1000 | < 100 | > 1000 |
| c1cc(-c2cc(N3CCOCC3)n3nc(CN4CC(N5CCOCC5)C4)cc3n2)c2cc[nH]c2c1 [Example 25, 5-(1H-indol-4-yl)-2-((3-(morpholin-4-yl)azetidin-1-yl)methyl)-7-(morpholin-4-yl)pyrazolo[1,5-a]-pyrimidine] |  | > 1000 |  |  | > 1000 | < 100 | > 1000 |
| CC(C)(C)C1CCN(Cc2cc3nc(-c4cccc5[nH]ccc45)cc(N4CCOCC4)n3n2)CC1 [Example 28, 2-((4-tert-butylpiperidin-1-yl)-methyl)-5-(1H-indol-4-yl)-7-(morpholin-4-yl)pyrazolo[1,5-a]-pyrimidine] |  | > 1000 |  |  | > 1000 | < 100 | > 1000 |
| CC(C)(O)C1CCN(Cc2cc3nc(-c4cncc5[nH]ccc45)cc(N4CCOCC4)n3n2)CC1 [Example 29, 5-(1H-6-azaindol-4-yl)-2-((4-(2-hydroxypropan-2-yl)piperidin-1-yl)methyl)-7-(morpholin-4-yl)-pyrazolo[1,5-a]pyrimidine] |  | > 1000 | < 100 | > 1000 |  |  |  |
| CC(C)(C)N1CCN(Cc2cc3nc(-c4cncc5[nH]ccc45)cc(N4CCOCC4)n3n2)CC1 [Example 30, 5-(1H-6-azaindol-4-yl)-2-((4-tert-butylpiperazin-1-yl)methyl)-7-(morpholin-4-yl)pyrazolo[1,5-a]-pyrimidine] |  | > 1000 |  |  | > 1000 | < 100 | > 1000 |
| O=S1(=O)CCN(C2CN(Cc3cc4nc(-c5cccc6[nH]ccc56)cc(N5CCOCC5)n4n3)C2)CC1 [Example 31, 5-(1H-indol-4-yl)-2-((3-(1,1-dioxothiomorpholin-4-yl)azetidin-1-yl)methyl)-7-(morpholin-4-yl)-pyrazolo[1,5-a]pyrimidine] |  | > 1000 |  |  | > 1000 | < 100 | > 1000 |
| CC(C)(C)N1CCN(Cc2cc3nc(-c4ccnc5[nH]ccc45)cc(N4CCOCC4)n3n2)CC1 [Example 32, 5-(1H-7-azaindol-4-yl)-2-((4-tert-butylpiperazin-1-yl)methyl)-7-(morpholin-4-yl)pyrazolo[1,5-a]-pyrimidine] |  | > 1000 | < 100 | > 1000 |  |  |  |
| CC(C)(O)C1CCN(Cc2cc3nc(-c4ccnc5[nH]ccc45)cc(N4CCOCC4)n3n2)CC1 [Example 33, 5-(1H-7-azaindol-4-yl)-2-((4-(2-hydroxypropan-2-yl)piperidin-1-yl)methyl)-7-(morpholin-4-yl)-pyrazolo[1,5-a]pyrimidine] | > 1000 | > 1000 | < 100 | > 1000 |  |  |  |
| Fc1ccc2[nH]ccc2c1-c1cc(N2CCOCC2)n2nc(CN3CCN(C4COC4)CC3)cc2n1 [Example 35] | > 1000 | > 1000 | < 100 | > 1000 |  |  |  |
| CC(C)(O)C1CCN(Cc2cc3nc(-n4c(C(F)F)nc5ccccc54)cc(N4CCOCC4)n3n2)CC1 [Example 51, 5-(2-(difluoromethyl)benzimidazol-1-yl)-2-((4-(2-hydroxypropan-2-yl)piperidin-1-yl)methyl)-7-(morpholin-4-yl)pyrazolo[1,5-a]-pyrimidine] | > 1000 | > 1000 | < 100 | > 1000 |  |  |  |
| CC(C)(C)N1CCN(Cc2cc3nc(-n4c(C(F)F)nc5cnccc54)cc(N4CCOCC4)n3n2)CC1 [Example 62, 5-(2-(difluoromethyl)imidazo[4,5-c]pyridin-1-yl)-2-((4-tert-butylpiperazin-1-yl)methyl)-7-(morpholin-4-yl)pyrazolo[1,5-a]-pyrimidine] | > 1000 | > 1000 | 100 to 1000 | > 1000 |  |  |  |
| FC(F)c1nc2ccccc2n1-c1cc(N2CCOCC2)n2nc(CN3CC(N4CCOCC4)C3)cc2n1 [Example 64, 5-(2-(difluoromethyl)benzimidazol-1-yl)-2-((3-(morpholin-4-yl)-azetidin-1-yl)methyl)-7-(morpholin-4-yl)pyrazolo[1,5-a]pyrimidine] | > 1000 | 100 to 1000 | < 100 | > 1000 |  |  |  |
